# Laboratory results as given in patent US7173062B2, “Method for the improvement of skin wrinkles using retinyl retinoate” (Enprani Co., Ltd., priority 2001, dated 2007).
# Key:
# [1] = Photostability test (UV-A 356 nm, 1H NMR); assay type: physicochemical; parameters: key: 4 = No qualitative change in ^1H NMR spectrum; 3 = Minute noise but no qualitative change in ^1H NMR spectrum; 2 = Clear noise and some qualitative change in ^1H NMR spectrum; 1 = Qualitative confirmation is difficult in ^1H NMR spectrum; conditions: room temperature
# Description: In order to examine photostability of the compound of formula (1) compared with retinol, 10 mg of sample was irradiated by UV-A light (wavelength 356 nm) using a Spectroline (Model CM-10; Fluorescence analysis cabinet; Spectronics Corporation, Westbury, N.Y., USA) at certain intervals of time at room temperature.
# RAR β = biological target: T1, RAR β (Homo sapiens, UniProt P10826); assay: Activity for RAR β (CAT reporter in HaCaT cells); assay type: cell-based; conditions: 1 μM, CAT ELISA
# T1 construct: expressed in transfected cells; host or cells: HaCaT
# T1 sequence (P10826 1-455): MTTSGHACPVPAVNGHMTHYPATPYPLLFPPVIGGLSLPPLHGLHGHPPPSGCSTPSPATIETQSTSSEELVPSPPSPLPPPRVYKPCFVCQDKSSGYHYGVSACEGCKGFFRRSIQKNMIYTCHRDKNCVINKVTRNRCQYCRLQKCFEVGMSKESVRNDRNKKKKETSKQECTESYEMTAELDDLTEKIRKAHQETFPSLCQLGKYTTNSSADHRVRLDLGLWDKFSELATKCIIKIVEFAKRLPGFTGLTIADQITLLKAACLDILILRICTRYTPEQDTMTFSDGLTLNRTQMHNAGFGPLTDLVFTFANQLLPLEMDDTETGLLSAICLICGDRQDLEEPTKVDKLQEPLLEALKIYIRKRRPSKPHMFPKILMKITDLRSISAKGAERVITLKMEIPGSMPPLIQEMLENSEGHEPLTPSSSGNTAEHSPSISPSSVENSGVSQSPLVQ
# Description: (§1) The effect of the retinol derivatives on the activity of RAR and RXR was examined as follows.
# (§2) Experimental procedure: Recombinant gene of DR5-tk-CAT or DR1-tk-CAT comprising DR1 or DR5 as a response element of RAR/RXR, […] promoter, and CAT (chloramphenicol acetyl transferase) was suitably combined with a plasmid DNA that expresses RAR α, β, γ and cotransfected to HaCaT cell line, a skin cancer cell line, with Lipofectamin (GibcoBRL). Then, the cells were incubated in DMEM/10% FBS medium for 1 day, retinol derivative was added in a concentration of 1 μM, and the cells were incubated again for 1 day under the condition of 5% CO2 and 37° C. The cells were washed with phosphate-buffered salione (PBS). Proteins were extracted from each cell, the activity of β-galactosidase was assayed, and the amount of protein was measured to determine the transfection efficiency. Further, the degree of transcription for RAR or RXR was analyzed by CAT ELISA (Roche Molecular Biochemicals, Mannheim, Germany).
# [2] = test system: AP-1 (comprising c-Jun protein); assay: Inhibition of activity of AP-1 protein (Coll-CAT collagenase promoter reporter in HaCaT cells); assay type: cell-based; conditions: for Relative inhibition against the expression of collagenase / effect on / inhibitory activity against c-Jun (AP-1), in words: HaCaT, Coll-CAT; for effect on / inhibitory activity against c-Jun (AP-1), in words: c-Jun / RAR α cotransfection
# Description: AP-1 (comprising c-Jun protein) is a transcription factor inducing the expression of collagenase that is a major cause of skin wrinkles. […] Therefore, studies thereabout were carried out in a similar manner to Experiment 6 as follows.
# Experimental procedure: CAT reporter (Coll-CAT) having the collagenase promoter wherein AP-1 response element (TRE) is contained, was transfected into HaCaT cell line, a skin cancer cell line, using a liposome. Then, the degree of inhibition against the activity of AP-1 by retinol derivatives was measured through CAT ELISA in a similar manner to Experiment 6. Further, the effect of retinol derivatives on the transcriptional activity of c-Jun (a protein that induces transfer of cancer, skin aging and inflammation, and consists of homologous isomers or heterologous isomers), a constitutional element of AP-1, was examined by cotransfecting c-Jun or RAR α expression vector.
# RAR γ = biological target: T2, RAR γ (Homo sapiens, UniProt P13631); assay: Activity for RAR γ (CAT reporter in HaCaT cells); assay type: cell-based; conditions: 1 μM, CAT ELISA
# T2 construct: expressed in transfected cells; host or cells: HaCaT
# T2 sequence (P13631 1-454): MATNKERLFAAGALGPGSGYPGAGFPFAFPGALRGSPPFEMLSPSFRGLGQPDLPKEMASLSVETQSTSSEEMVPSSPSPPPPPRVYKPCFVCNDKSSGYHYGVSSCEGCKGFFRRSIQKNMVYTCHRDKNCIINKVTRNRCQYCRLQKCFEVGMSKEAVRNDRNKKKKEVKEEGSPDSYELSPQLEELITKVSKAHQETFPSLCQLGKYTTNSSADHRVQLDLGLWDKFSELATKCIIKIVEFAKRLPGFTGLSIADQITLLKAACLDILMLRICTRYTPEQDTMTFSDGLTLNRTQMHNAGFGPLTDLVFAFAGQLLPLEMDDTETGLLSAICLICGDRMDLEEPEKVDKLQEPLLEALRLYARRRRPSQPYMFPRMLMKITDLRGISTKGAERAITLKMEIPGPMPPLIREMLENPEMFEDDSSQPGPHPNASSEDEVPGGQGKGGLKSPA
# Description: as §1, §2
# RXR α, β, γ = assay: Activity for RXR (CAT reporter in HaCaT cells); assay type: cell-based; conditions: 1 μM, CAT ELISA, Control = 1.0
# Description: as §1, §2
# RAR α = biological target: T3, RAR α (Homo sapiens, UniProt P10276); assay: Activity for RAR α (CAT reporter in HaCaT cells); assay type: cell-based; conditions: 1 μM, CAT ELISA
# T3 construct: expressed in transfected cells; host or cells: HaCaT
# T3 sequence (P10276 1-462): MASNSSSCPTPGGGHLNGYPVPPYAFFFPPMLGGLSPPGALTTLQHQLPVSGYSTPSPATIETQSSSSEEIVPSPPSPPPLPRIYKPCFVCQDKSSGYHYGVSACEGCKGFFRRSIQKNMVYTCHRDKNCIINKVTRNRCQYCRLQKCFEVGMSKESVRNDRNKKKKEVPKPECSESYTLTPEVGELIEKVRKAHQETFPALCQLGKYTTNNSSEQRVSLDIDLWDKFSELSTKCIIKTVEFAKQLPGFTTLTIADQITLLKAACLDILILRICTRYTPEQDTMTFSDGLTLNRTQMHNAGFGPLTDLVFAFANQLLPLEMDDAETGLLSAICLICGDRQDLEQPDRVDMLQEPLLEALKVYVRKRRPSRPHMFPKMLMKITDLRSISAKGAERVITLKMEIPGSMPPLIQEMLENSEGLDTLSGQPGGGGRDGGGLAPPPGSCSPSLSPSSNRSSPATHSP
# Description: as §1, §2
# [3] = test system: Normal human fibroblast (Newborn, passage: 6); assay: Collagen synthesis test (Sircol collagen assay); assay type: cell-based; conditions: 0.000001%, 0.00001%(w/v); human fibroblast
# Description: The effect for collagen synthesis of the compound of formula (1) was examined by using retinol, retinoic acid, and derivatives thereof as comparison compounds to confirm its utility as inhibitors for skin aging as follows. The results are represented in FIG. 2.
# Cell: Normal human fibroblast (Newborn, passage: 6)
# Medium: DMEM containing 10% FBS→DMEM free of FBS was used when cells were treated with samples.
# Concentration: A range of concentration where the samples exert no toxicity to the cells was selected through a cell toxicity test ? 0.000001%, 0.00001%(w/v)
# Procedure: 1×10^5 cells/well were inoculated into a 6-well plate. Cells were cultured to show about 79–80% confluent. Cells were treated with test samples and incubated for 2 days (FBS was not added to the medium when cells were treated with samples). After 2 days, cell medium and cells were separated from each other and respectively stored in a refrigerator. The cell extract was subjected to the protein analysis (BCA Protein Assay Kit, PIERCE 23225) and the medium was subjected to collagen analysis.
# After the medium was removed, a small amount of PBS was added. Cells were scraped with a scraper. 1N NaOH (100 μl) and distilled water (400 μl) were added and the resulting mixture was allowed to stand overnight. Then, the protein analysis was carried out.
# Collagen analysis: Analysis kit (Sircol Collagen assay kit—a dye that specifically combines with soluble collagen is used)
# 1.0 ml of Sircol Dye Reagent was introduced into each tube and mixed for 30 minutes. The mixture was centrifuged for 10 minutes at 5,000 g or more and the supernatant was removed. 1.0 ml Sircol Alkali Reagent was added, slowly mixed, and absorbance at 540 nm was measured. The amount of protein was converted into the value of collagen analysis (see: Mechanism of Aging and Development 73, 179–187, 1994).
# After the above experiment, the increasing ratio for collagen synthesis of the test group over the control group treated only by DMEM was depicted in FIG. 2.
# skin of normal adults = assay: Test for skin irritation property (closed patch test); assay type: in vivo, human; conditions: closed patch test 24 hours, 20 adults
# Description: In order to examine the skin irritation of the compound of formula (1), a patch test for the skin of normal adults was carried out. As the carrier, capryl caprylic triglyceride or the conventional O/W formulation was used, and twenty (20) adults per a group were tested for 24 hours.
# The conventional O/W formulation used in the present experiment was prepared according to the following procedure.
# Each of the aqueous part of Nos. 1–6 and the oily part of Nos. 7–13 as shown in the following Table 1 was heated to 75–80° C. to be thoroughly dissolved. The oily part was slowly added to the aqueous part and emulsification was performed for 5 minutes at 75–80° C. in a homomixer of 3000rpm. During the emulsification, the mixture was neutralized by the neutralizing agent of No. 14. After the first emulsification, the mixture was cooled, the retinal retaliate and fragrance of Nos. 15–16 were added at 50–55° C., and then the second emulsification was carried out for 3 minutes in a homomixer of 3000rpm. The mixture was cooled again to 27–30° C. to prepare the composition of O/W formulation.
# From the experimental results, the irritation indexes were calculated according to the following Equation 1 and the results are represented in the following Table 2. Irritation index={Σ(Test Value×Number of Examinees Corresponding to the Test Value)/(Total Examinees×The Maximum Test Value)×100 Equation 1
# Test Value +++: 5, ++: 4, +: 3, +−: 2, −:1
# The degree of irritation was determined according to the following standards:
# 1.9 or less: Minute irritation, 2.0–2.9: Weak irritation, 3.0–3.9: Moderate irritation, 4.0 or more: Strong irritation
# [4] = Condition of expression: c-Jun + RAR α, untreated = 8.6
# [5] = Condition of expression: c-Jun, untreated = 8.6
# [6] = Condition of expression: — (no c-Jun or RAR α vector), untreated = 1.0
# [7] = Control = 1.0, listed as retinal acetyl salicylate
# [8] = Control = 1.0, listed as retinal salicylate
SMILES,Relative activity against RAR β (RAR β; Control = 1.0),"Relative inhibition against the expression of collagenase [2, 4]","Relative inhibition against the expression of collagenase [2, 5]","Relative inhibition against the expression of collagenase [2, 6]",Relative activity against RAR γ (RAR γ; Control = 1.0),"Relative activity against RXR α, β, γ (RXR α, β, γ)",Relative activity against RAR α (RAR α; Control = 1.0),"effect on / inhibitory activity against c-Jun (AP-1), in words [2]",other results
CC1=C(/C=C/C(C)=C/C=C/C(C)=C/C(=O)OC(=O)/C=C(C)/C=C/C=C(C)/C=C/C2=C(C)CCCC2(C)C)C(C)(C)CCC1,–,–,–,–,–,–,–,–,"Photostability level ([1]; After 0 hour, 10 mg sample): 4; Photostability level ([1]; After 2 hours): 3; Photostability level ([1]; After 12 hours): 2; Photostability level ([1]; After 24 hours): 2; Photostability level ([1]; After 48 hours): 2"
CC1=C(/C=C/C(C)=C/C=C/C(C)=C/C(=O)O)C(C)(C)CCC1 [Retinoic acid],4.0,3.1,5.4,0.6,3.0,9.5,37.0,–,inhibition of the expression of collagenase ([2]; cells treated together with RAR α (c-Jun expressed)): about 64%
CCCCCCCCCCCCCCCC(=O)OC/C=C(C)/C=C/C=C(C)/C=C/C1=C(C)CCCC1(C)C [Retinyl Palmitate],–,–,–,–,–,–,–,–,"effect for collagen synthesis (FIG. 2), comparison in words [3]: much lower effect for collagen synthesis than retinol; Degree of Irritation (skin of normal adults; 0.138% in C.C.T): Moderate irritation (3.0–3.9: Moderate irritation); Irritation Index (skin of normal adults; 0.138% in C.C.T): 3.8; Degree of Irritation (skin of normal adults; 0.55% in C.C.T): Strong irritation (4.0 or more: Strong irritation); Irritation Index (skin of normal adults; 0.55% in C.C.T): 4.5"
CC(=O)Oc1ccccc1C(=O)OC/C=C(C)/C=C/C=C(C)/C=C/C1=C(C)CCCC1(C)C [Retinyl acetyl salicylate],1.0,8.7,8.5,1.0,1.0,1.1,2.5,no effect,Relative activity against RAR β (RAR β; [7]): no activity; Relative activity against RAR γ (RAR γ; [7]): no activity; Relative activity against RAR α (RAR α; [7]): low activity
CC1=C(/C=C/C(C)=C/C=C/C(C)=C/COC(=O)c2ccccc2O)C(C)(C)CCC1 [Retinyl salicylate],1.1,8.8,8.7,1.0,1.0,1.0,3.2,no effect,Relative activity against RAR β (RAR β; [8]): no activity; Relative activity against RAR γ (RAR γ; [8]): no activity; Relative activity against RAR α (RAR α; [8]): low activity
